Measured values from US11523612B2, “Pesticidal composition comprising oxime carbamate and use thereof” (priority 2017, dated 2022).

Assays:
[1] = Solubility Test 1: oxamyl dissolved in solvent systems, crystallization or precipitation observed; assay type: physicochemical
Procedure: Samples of each solution were kept at −6° C. and −18° C. for 7 days, after which the degree of crystallization or precipitation of oxamyl was observed.

[2] = as above; assay type: physicochemical; remark: listed apart in the source
[3] = 40 g oxamyl in Methanol:Water 50:50 g
[4] = 40 g oxamyl in Methanol:Water 80:20 g
[5] = 40 g oxamyl in Methanol:Water:Propylene Carbonate 30:20:50 g
[6] = 40 g oxamyl in Methanol:Water:Propylene Carbonate 40:30:30 g
[7] = 40 g oxamyl in Methanol:Water:Propylene Carbonate 40:40:20 g
[8] = 40 g oxamyl in Methanol:Water:Propylene Carbonate 50:40:10 g
[9] = 40 g oxamyl in Methanol:Water:Propylene Carbonate 60:20:20 g
[10] = 40 g oxamyl in Methanol:Water:Propylene Carbonate 75:20:5 g

In the case of `CNC(=O)O/N=C(\SC)C(=O)N(C)C` [Oxamyl, methyl 2-(dimethylamino)-N-[[(methylamino)carbonyl]oxy]-2-oxoethanimidothioate], the “Observations after 7 days at −6° C.” value [1, 3] is reported as “Mild precipitation”, the “Observations after 7 days at −18° C.” value [1, 3] is reported as “Significant precipitation” and the “Observations at room temperature” value [1, 3] is reported as “Clear solution”. For the same molecule, the “Observations after 7 days at −6° C.” value [1, 4] was “Clear solution”, the “Observations after 7 days at −18° C.” value [1, 4] was “Significant precipitation” and the “Observations after 7 days at −6° C.” value [1, 5] was “Clear solution”. For the same molecule, the “Observations after 7 days at −18° C.” value [1, 5] was “Clear solution”, the “Observations after 7 days at −6° C.” value [1, 6] was “Clear solution” and the “Observations after 7 days at −18° C.” value [1, 6] was “Clear solution”. The “Observations at room temperature” value [1, 6] was “Clear solution”, the “Observations after 7 days at −6° C.” value [1, 7] was “Clear solution” and the “Observations after 7 days at −18° C.” value [1, 7] was “Clear solution”. For the same molecule, the “Observations at room temperature” value [1, 7] was “Clear solution”, the “Observations after 7 days at −6° C.” value [1, 8] was “Clear solution” and the “Observations after 7 days at −18° C.” value [1, 8] was “Clear solution”. For the same molecule, the “Observations at room temperature” value [1, 8] was “Clear solution”, the “Observations after 7 days at −6° C.” value [1, 9] was “Clear solution” and the “Observations after 7 days at −18° C.” value [1, 9] was “Clear solution”. The “Observations at room temperature” value [1, 9] was “Clear solution”, the “Observations after 7 days at −6° C.” value [1, 10] was “Clear solution” and the “Observations after 7 days at −18° C.” value [1, 10] was “Clear solution”. For the same molecule, the solubility for oxamyl ([1]; solvent system comprising methanol, water and propylene carbonate, temperatures down to −18° C.) was “significantly higher solubility”, the “Observations at room temperature” value [2, 4] was “Clear solution” and the “Observations at room temperature” value [2, 5] was “Clear solution”. The “Observations at room temperature” value [2, 10] was “Clear solution”.
